Measurements as given in patent US5449814A, “Lignan analogues, methods of preparation thereof and anti-hyperlipemic agents” (Shionogi & Co., Ltd., priority 1991, dated 1995).
Where two headings read alike, the source gives them in different places.

Key:
[1] = system: LDL; test: Inhibitory effect on oxidative modification of LDL (copper-induced, TBA reactive substances); assay type: biochemical, New Zealand albino rabbits; conditions: rabbit LDL 0.2 mg protein/ml, 0.5 μM Cu^2+, 37° C., 24 hours; read-out: Inhibition of LDL oxidation IC50
Experimental: Inhibitory effect on oxidative modification of LDL
According to the method by Kita et al. (Proc. Natl. Acad. Sci., U.S.A, Vol. 84, 5928 (1987)), the experiment was proceeded as follows.
LDL was isolated from the blood of New Zealand albino rabbits fed with a diet containing 0.5% cholesterol for 3 weeks, and dissolved in phosphate-buffered physiological saline (final LDL concentration: 0.2 mg protein/ml). To this solution, each test compound in ethanol was added and then copper sulfate (final Cu^2+ concentration: 0.5 μM) was added thereto. The mixture was incubated at 37° C. for 24 hours.
After incubation, the content of lipid peroxides in each solution was determined as thiobarbituric acid reactive substances (TBA reactive substances). Concentration for 50% inhibition (IC50) was obtained from a linear regression curve of concentration of a compound versus % inhibition of oxidative modification of LDL. To quantify TBA reactive substances, proteins were removed from the solution after incubation, and the supernatant was examined for the content of TBA reactive substances by TBA method.

[2] = system: cholesterol in serum; test: Hypocholesterolemic effect in cholesterol-fed mice; assay type: in vivo, Male ICR mice; conditions: Mus musculus, po, 168 h, diet 1% cholesterol and 0.5% sodium cholate with 0.12% test compound, 7 days
Experimental: Hypocholesterolemic effect
Male ICR mice weighing 30 to 40 g were allowed to access to a diet containing 1% cholesterol and 0.5% sodium cholate supplemented with 0.12% of a test compound (no test compound in control group) ad libitum for 7 days. Then, the blood was taken and total cholesterol in serum was determined by the method of Allain (Clin. Chem., Vol. 20, 470 (1974)).
Total amount of VLDL cholesterol and LDL cholesterol was obtained by subtracting HLD cholesterol from total cholesterol. HLD cholesterol was quantified by the method of Ash and Hentschel et al. (Clin. Chem., Vol. 24, 2180 (1978)).
Hypocholesterolemic effect of a test compound was evaluated based on % reduction in cholesterol calculated using the equation shown below.

[3] = serum, read-out: Total Chol. reduction (%)
[4] = total minus HDL cholesterol, read-out: (VLDL + LDL) Chol. reduction (%)

SMILES	IC50 [1] [µM]	inhibition in vivo at 0.12 % in diet [2, 3] [%]	inhibition in vivo at 0.12 % in diet [2, 4] [%]
CCC(CC)CC(=O)c1c(C(=O)OC)c(-c2ccc(OC)c(OC)c2)c2c(OC)c(OC)c(OC)cc2c1O [Example 1, 1-(3,4-dimethoxyphenyl)-3-(3-ethyl-1-oxopentyl)-4-hydroxy-2-methoxycarbonyl-6,7,8-trimethoxynaphthalene]	0.4	35	72
COC(=O)c1c(C(C)=O)c(O)c2cc(OC)c(OC)c(OC)c2c1-c1ccc(OC)c(OC)c1 [Example 2, 3-Acetyl-1-(3,4-dimethoxyphenyl)-4-hydroxy-2-methoxycarbonyl-6,7,8-trimethoxynaphthalene]	1.24	22	59
COC(=O)c1c(C(=O)C(C)C)c(O)c2cc(OC)c(OC)c(OC)c2c1-c1ccc(OC)c(OC)c1 [Example 3, 1-(3,4-Dimethoxyphenyl)-4-hydroxy-2-methoxycarbonyl-3-(2-methyl-1-oxopropyl)-6,7,8-trimethoxynaphthalene]	0.12	21	57
CCC(CC)C(=O)c1c(C(=O)OC)c(-c2ccc(OC)c(OC)c2)c2c(OC)c(OC)c(OC)cc2c1O [Example 4, 1-(3,4-Dimethoxyphenyl)-3-(2-ethyl-1-oxobutyl)-4-hydroxy-2-methoxycarbonyl-6,7,8-trimethoxynaphthalene]	0.65	28	78
COC(=O)c1c(C(=O)C2CCCCC2)c(O)c2cc(OC)c(OC)c(OC)c2c1-c1ccc(OC)c(OC)c1 [Example 5, 3-Cyclohexanoyl-1-(3,4-dimethoxyphenyl)-4-hydroxy-2-methoxycarbonyl-6,7,8-trimethoxynaphthalene]	0.46	22	61
COC(=O)c1c(C(=O)c2ccccc2)c(O)c2cc(OC)c(OC)c(OC)c2c1-c1ccc(OC)c(OC)c1 [Example 6, 3-Benzoyl-1-(3,4-dimethoxyphenyl)-4-hydroxy-2-methoxycarbonyl-6,7,8-trimethoxynaphthalene]	0.18	16	55
COC(=O)c1c(C(=O)CC2CCCCC2)c(O)c2cc(OC)c(OC)c(OC)c2c1-c1ccc(OC)c(OC)c1 [Example 7, 3-(2-Cyclohexyl-1-oxoethyl)-1-(3,4-dimethoxyphenyl)-4-hydroxy-2-methoxycarbonyl-6,7,8-trimethoxynaphthalene]	2.58	23	59
COC(=O)c1c(C(=O)Cc2ccccc2)c(O)c2cc(OC)c(OC)c(OC)c2c1-c1ccc(OC)c(OC)c1 [Example 8, 1-(3,4-Dimethoxyphenyl)-4-hydroxy-2-methoxycarbonyl-3-(2-phenyl-1-oxoethyl)-6,7,8-trimethoxynaphthalene]	4.67	17	50
CCC(CC)CC(=O)c1c(C(=O)OC)c(-c2ccc(OC)c(OC)c2)c2sccc2c1O [Example 15, 7-(3,4-Dimethoxyphenyl)-5-(3-ethyl-1-oxopentyl)-4-hydroxy-6-(methoxycarbonyl)benzo[b]thiophene]	7.9	23	43
CCC(=O)c1c(C(=O)OC)c(-c2ccc(OC)c(OC)c2)c2c(OC)c(OC)c(OC)cc2c1O [Example 16, 1-(3,4-Dimethoxyphenyl)-4-hydroxy-2-methoxycarbonyl-3-(1-oxopropyl)-6,7,8-trimethoxynaphthalene]	1.85	26	56
COC(=O)c1c(C(=O)c2cccc(C)c2)c(O)c2cc(OC)c(OC)c(OC)c2c1-c1ccc(OC)c(OC)c1 [Example 18, 1-(3,4-Dimethoxyphenyl)-4-hydroxy-2-methoxycarbonyl-3-(3-methylbenzoyl)-6,7,8-trimethoxynaphthalene]	1	13	66
COC(=O)c1c(C(=O)c2ccc(C)cc2)c(O)c2cc(OC)c(OC)c(OC)c2c1-c1ccc(OC)c(OC)c1 [Example 19, 1-(3,4-Dimethoxyphenyl)-4-hydroxy-2-methoxycarbonyl-3-(4-methylbenzoyl)-6,7,8-trimethoxynaphthalene]	1.05	11	58
COC(=O)c1c(C(=O)c2ccccc2OC)c(O)c2cc(OC)c(OC)c(OC)c2c1-c1ccc(OC)c(OC)c1 [Example 20, 1-(3,4-Dimethoxyphenyl)-4-hydroxy-3-(2-methoxybenzoyl)-2-methoxycarbonyl-6,7,8-trimethoxynaphthalene]	2.5	14	63
COC(=O)c1c(C(=O)c2ccc(OC)cc2)c(O)c2cc(OC)c(OC)c(OC)c2c1-c1ccc(OC)c(OC)c1 [Example 22, 1-(3,4-Dimethoxyphenyl)-4-hydroxy-3-(4-methoxybenzoyl)-2-methoxycarbonyl-6,7,8-trimethoxynaphthalene]	0.82	12	60
COC(=O)c1c(C(=O)c2ccc(Cl)cc2)c(O)c2cc(OC)c(OC)c(OC)c2c1-c1ccc(OC)c(OC)c1 [Example 23, 3-(4-Chlorobenzoyl)-1-(3,4-dimethoxyphenyl)-4-hydroxy-2-methoxycarbonyl-6,7,8-trimethoxynaphthalene]	1.42	28	74
COC(=O)c1c(C(=O)c2ccc(OC)c(OC)c2)c(O)c2cc(OC)c(OC)c(OC)c2c1-c1ccc(OC)c(OC)c1 [Example 24, 3-(3,4-Dimethoxybenzoyl)-1-(3,4-dimethoxyphenyl)-4-hydroxy-2-methoxycarbonyl-6,7,8-trimethoxynaphthalene]	0.98	11	54
COC(=O)c1c(C(=O)c2ccc3ccccc3c2)c(O)c2cc(OC)c(OC)c(OC)c2c1-c1ccc(OC)c(OC)c1 [Example 25, 1-(3,4-Dimethoxyphenyl)-4-hydroxy-2-methoxycarbonyl-3-(2-naphthoyl)-6,7,8-trimethoxynaphthalene]	2.07	16	59
COC(=O)c1c(C(=O)c2ccc(F)cc2)c(O)c2cc(OC)c(OC)c(OC)c2c1-c1ccc(OC)c(OC)c1 [Example 26, 1-(3,4-Dimethoxyphenyl)-3-(4-fluorobenzoyl)-4-hydroxy-2-methoxycarbonyl-6,7,8-trimethoxynaphthalene]	0.79	10	54
COC(=O)c1c(C(=O)c2ccc(C(F)(F)F)cc2)c(O)c2cc(OC)c(OC)c(OC)c2c1-c1ccc(OC)c(OC)c1 [Example 28, 1-(3,4-Dimethoxyphenyl)-4-hydroxy-2-methoxycarbonyl-3-[4-(trifluoromethyl)benzoyl]-6,7,8-trimethoxynaphthalene]	1.52	22	61
CCCc1ccc(C(=O)c2c(C(=O)OC)c(-c3ccc(OC)c(OC)c3)c3c(OC)c(OC)c(OC)cc3c2O)cc1 [Example 29, 1-(3,4-Dimethoxyphenyl)-4-hydroxy-2-methoxycarbonyl-3-[4-(1-propyl)benzoyl]-6,7,8-trimethoxynaphthalene]	1.38	20	42
CCC(CC)C(=O)c1c(C(=O)OC)c(-c2ccc(OC)c(OC)c2)c2cc3c(cc2c1O)OCO3 [Example 33, 1-(3,4-Dimethoxyphenyl)-3-(2-ethyl-1-oxobutyl)-4-hydroxy-2-methoxycarbonyl-6,7-(methylenedioxy)naphthalene]		19	50
COC(=O)c1c(C(=O)c2ccc(Cl)cc2)c(O)c2cc3c(cc2c1-c1ccc(OC)c(OC)c1)OCO3 [Example 34, 3-(4-Chlorobenzoyl)-1-(3,4-dimethoxyphenyl)-4-hydroxy-2-methoxycarbonyl-6,7-(methylenedioxy)naphthalene]		23	53
CCC(CC)CC(=O)c1c(C(=O)OC)c(-c2ccc3c(c2)OCCO3)c2c(OC)c(OC)c(OC)cc2c1O [Example 60, 1-[3,4-(Ethylenedioxy)phenyl]-3-(3-ethyl-1-oxopentyl)-4-hydroxy-2-methoxycarbonyl-6,7,8-trimethoxynaphthalene]		6	33
